Experimental findings from PubChem BioAssay AID248 (DTP/NCI, 2004) are described below.

Where “and” joins values, the source holds several entries; their conditions need not be identical. Identical values can stand only once. Inconclusive results and toxic doses are left out.

In this assay the test system is L1210 leukemia ip in BDF1 mice, survival T/C. Put plainly: NCI In Vivo Anticancer Drug Screen. Data for tumor model L1210 Leukemia (intraperitoneal) in B6D2F1 (BDF1) mice. As to conditions: endpoint: mean survival time, higher = longer survival. In outline: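 Ratio derived from survival: compound-dosed mice over vehicle-dosed mice, all bearing a transplantable tumor.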

Where [1] appears, read: dose: 100.0 mg/kg/injection, schedule: Q01DX009 (ip), vehicle: saline with Tween-80.
Setting [2] is: dose: 200.0 mg/kg/injection, schedule: Q01DX009 (ip), vehicle: saline with Tween-80.
[3] abbreviates: dose: 400.0 mg/kg/injection, schedule: Q01DX009 (ip), vehicle: saline with Tween-80.
[4] abbreviates: dose: 100.0 mg/kg/injection, schedule: Q01DX009 (ip), vehicle: Klucel (hydroxypropylcellulose) (HPC).
[5] abbreviates: dose: 200.0 mg/kg/injection, schedule: Q01DX009 (ip), vehicle: Klucel (hydroxypropylcellulose) (HPC).
Setting [6] is: dose: 400.0 mg/kg/injection, schedule: Q01DX009 (ip), vehicle: Klucel (hydroxypropylcellulose) (HPC).
[7] abbreviates: dose: 100.0 mg/kg/injection, schedule: Q04DX003 (ip), vehicle: saline with Tween-80.
Setting [8] is: dose: 100.0 mg/kg/injection, schedule: Q01DX001 (ip), vehicle: saline with Tween-80.
Setting [9] is: dose: 200.0 mg/kg/injection, schedule: Q01DX001 (ip), vehicle: saline with Tween-80.
Where [10] appears, read: dose: 100.0 mg/kg/injection, schedule: Q04DX003 (ip), vehicle: Klucel (hydroxypropylcellulose) (HPC).
The mark [11] stands for this setting: dose: 200.0 mg/kg/injection, schedule: Q04DX003 (ip), vehicle: Klucel (hydroxypropylcellulose) (HPC).
Where [12] appears, read: dose: 400.0 mg/kg/injection, schedule: Q04DX003 (ip), vehicle: Klucel (hydroxypropylcellulose) (HPC).
Where [13] appears, read: dose: 200.0 mg/kg/injection, schedule: Q04DX003 (ip), vehicle: saline with Tween-80.
[14] abbreviates: dose: 400.0 mg/kg/injection, schedule: Q04DX003 (ip), vehicle: saline with Tween-80.

With `COc1cccc2c1C(=O)c1c(O)c3c(c(O)c1C2=O)C[C@@](O)(C(=O)COC(=O)c1ccccc1)C[C@@H]3OC1CC(N)C(O)C(C)O1` (some centres undefined), the T/C runs as follows: (dose: 0.5 mg/kg/injection, schedule: Q04DX003 (ip), vehicle: Klucel (hydroxypropylcellulose) (HPC)) 117 % of control; (dose: 0.8 mg/kg/injection, schedule: Q04DX003 (ip), vehicle: Klucel (hydroxypropylcellulose) (HPC)) 118 % of control; (dose: 4.4 mg/kg/injection, schedule: Q04DX003 (ip), vehicle: Klucel (hydroxypropylcellulose) (HPC)) 152 % of control; (dose: 6.8 mg/kg/injection, schedule: Q04DX003 (ip), vehicle: Klucel (hydroxypropylcellulose) (HPC)) 165 % of control; (dose: 10.0 mg/kg/injection, schedule: Q04DX003 (ip), vehicle: Klucel (hydroxypropylcellulose) (HPC)) 172 % of control.

Take `CC(=O)C1(C(C)=O)C(c2cccc([N+](=O)[O-])c2)C1(c1ccccc1)[N+](=O)[O-]` (centres undefined): the T/C by setting is: (dose: 100.0 mg/kg/injection, schedule: Q01DX001 (ip), vehicle: other) 95 % of control; under setting [1], 94 % of control; (dose: 100.0 mg/kg/injection, schedule: Q04DX003 (ip), vehicle: other) 92 % of control; (dose: 200.0 mg/kg/injection, schedule: Q01DX001 (ip), vehicle: other) 93 % of control; under setting [2], 102 % of control; (dose: 200.0 mg/kg/injection, schedule: Q04DX003 (ip), vehicle: other) 92 % of control. For the same compound, the T/C was 95 % of control (dose: 400.0 mg/kg/injection, schedule: Q01DX001 (ip), vehicle: other); 96 % of control under setting [3]; 97 % of control (dose: 400.0 mg/kg/injection, schedule: Q04DX003 (ip), vehicle: other).

With `O=C1CCc2cc(Cl)ccc2O1`, the T/C is, setting by setting: (dose: 50.0 mg/kg/injection, schedule: Q01DX001 (ip), vehicle: carboxymethylcellulose (CMC)) 103 % of control; (dose: 100.0 mg/kg/injection, schedule: Q01DX001 (ip), vehicle: carboxymethylcellulose (CMC)) 100 % of control; (dose: 200.0 mg/kg/injection, schedule: Q01DX001 (ip), vehicle: carboxymethylcellulose (CMC)) 103 % of control; (dose: 400.0 mg/kg/injection, schedule: Q01DX001 (ip), vehicle: carboxymethylcellulose (CMC)) 94 % of control.

Turning to `O=c1cc(CCCCCc2ccccc2)[nH]c(=O)[nH]1`, the T/C is, setting by setting: (dose: 100.0 mg/kg/injection, schedule: Q01DX001 (ip), vehicle: Klucel (hydroxypropylcellulose) (HPC)) 97 % of control; (dose: 200.0 mg/kg/injection, schedule: Q01DX001 (ip), vehicle: Klucel (hydroxypropylcellulose) (HPC)) 97 % of control; (dose: 400.0 mg/kg/injection, schedule: Q01DX001 (ip), vehicle: Klucel (hydroxypropylcellulose) (HPC)) 101 % of control.

`N#CCCCC1(CCCC#N)OCCO1`: the T/C (dose: 25.0 mg/kg/injection, schedule: Q01DX009 (ip), vehicle: saline) was 94 % of control and the T/C (dose: 50.0 mg/kg/injection, schedule: Q01DX009 (ip), vehicle: saline) is 100 % of control.

Consider `CN(C)C(=O)Nc1cccc2nsnc12`, for which the T/C is, setting by setting: under setting [4], 106 % of control; under setting [5], 104 % of control; under setting [6], 102 % of control.

For the compound `CNC(=O)Oc1ccccc1NC(=O)OC`, the T/C runs as follows: (dose: 25.0 mg/kg/injection, schedule: Q04DX003 (ip), vehicle: saline with Tween-80) 97 % of control; (dose: 50.0 mg/kg/injection, schedule: Q04DX003 (ip), vehicle: saline with Tween-80) 95 % of control; under setting [7], 92 % of control and 97 % of control.

On to `CN(C)c1ccc(/C=C(\C#N)c2ccccc2)cc1`, for which the T/C under setting [8] was 87 % of control and the T/C under setting [9] is 88 % of control.

`CC(C)=C1C2CCC1C(CO)C2CO` (centres undefined): the T/C under setting [4] is 95 % of control; the T/C under setting [10] was 102 % of control; the T/C under setting [5] is 102 % of control; the T/C under setting [11] is 100 % of control; the T/C under setting [6] was 104 % of control; the T/C under setting [12] was 96 % of control.

Take `COc1cc2cnccc2cc1OCc1ccccc1`: the T/C was 96 % of control (dose: 25.0 mg/kg/injection, schedule: Q01DX009 (ip), vehicle: water); 97 % of control (dose: 50.0 mg/kg/injection, schedule: Q01DX009 (ip), vehicle: water); 100 % of control (dose: 100.0 mg/kg/injection, schedule: Q01DX009 (ip), vehicle: water).

With `COC(=O)CCC(=O)c1ccc(Cl)cc1`, the T/C is, setting by setting: (dose: 100.0 mg/kg/injection, schedule: Q01DX009 (ip), vehicle: gum acacia) 98 % of control; (dose: 100.0 mg/kg/injection, schedule: Q04DX003 (ip), vehicle: gum acacia) 100 % of control; (dose: 200.0 mg/kg/injection, schedule: Q01DX009 (ip), vehicle: gum acacia) 97 % of control; (dose: 200.0 mg/kg/injection, schedule: Q04DX003 (ip), vehicle: gum acacia) 96 % of control; (dose: 400.0 mg/kg/injection, schedule: Q01DX009 (ip), vehicle: gum acacia) 101 % of control; (dose: 400.0 mg/kg/injection, schedule: Q04DX003 (ip), vehicle: gum acacia) 102 % of control.

As for `Nc1nc(N)nc(-c2ccccc2NC(=O)c2ccccc2[N+](=O)[O-])n1`, the T/C reads like this: under setting [4], 91 % of control; under setting [10], 101 % of control; under setting [5], 96 % of control; under setting [11], 105 % of control; under setting [6], 90 % of control; under setting [12], 100 % of control.

On to `Cc1cc(C(C)(C)c2cc(C)c(O)c(C)c2)cc(C)c1O`, for which the T/C was 95 % of control under setting [1]; 105 % of control under setting [7]; 93 % of control under setting [2]; 102 % of control under setting [13]; 97 % of control under setting [3]; 96 % of control under setting [14].

On to `CCOC(=O)C(C(C)=O)c1cc(NS(=O)(=O)c2ccccc2)ccc1O` (centres undefined), for which the T/C is 95 % of control under setting [1], 96 % of control under setting [2] and 93 % of control under setting [3].

Turning to `C=CC/C(=C/CCC)CCC`, the T/C reads like this: (dose: 50.0 mg/kg/injection, schedule: Q01DX009 (ip), vehicle: saline with Tween-80) 95 % of control; under setting [1], 100 % of control; under setting [2], 100 % of control.

`BrCc1cccc2ccccc12`: the T/C was 96 % of control (dose: 25.0 mg/kg/injection, schedule: Q01DX009 (ip), vehicle: acetone); 95 % of control (dose: 50.0 mg/kg/injection, schedule: Q01DX009 (ip), vehicle: acetone); 90 % of control (dose: 50.0 mg/kg/injection, schedule: Q04DX003 (ip), vehicle: saline); 98 % of control (dose: 100.0 mg/kg/injection, schedule: Q01DX001 (ip), vehicle: saline); 95 % of control (dose: 100.0 mg/kg/injection, schedule: Q01DX009 (ip), vehicle: acetone); 87 % of control (dose: 100.0 mg/kg/injection, schedule: Q04DX003 (ip), vehicle: saline). In addition, under “dose: 200.0 mg/kg/injection, schedule: Q01DX001 (ip), vehicle: saline”, the T/C is 102 % of control.

Regarding `COc1cc(CNC(=O)CCN2CC2)ccc1O`, the T/C runs as follows: (dose: 50.0 mg/kg/injection, schedule: Q04DX003 (ip), vehicle: Klucel (hydroxypropylcellulose) (HPC)) 109 % of control; under setting [10], 98 % of control; under setting [11], 95 % of control; under setting [12], 97 % of control.

On to `COC(=O)c1ccc(N=Nc2ncc(CC(NC(C)=O)C(=O)OC)[nH]2)cc1` (centres undefined), for which the T/C under setting [8] is 93 % of control; the T/C under setting [9] is 96 % of control; the T/C (dose: 400.0 mg/kg/injection, schedule: Q01DX001 (ip), vehicle: saline with Tween-80) is 100 % of control.

Turning to `O=[N+]([O-])c1ccccc1SNc1ccc(NSc2ccccc2[N+](=O)[O-])cc1`, the T/C runs as follows: (dose: 3.13 mg/kg/injection, schedule: Q01DX001 (ip), vehicle: saline with Tween-80) 105 % of control; (dose: 6.25 mg/kg/injection, schedule: Q01DX001 (ip), vehicle: saline with Tween-80) 100 % of control; (dose: 12.5 mg/kg/injection, schedule: Q01DX001 (ip), vehicle: saline with Tween-80) 97 % of control.

As for `c1ccc(N(CC2CO2)CC2CO2)cc1` (centres undefined), the T/C is, setting by setting: under setting [7], 106 % of control; under setting [13], 104 % of control; under setting [14], 112 % of control.
